Measurements from patent publication US20140170237A1, “ANTIMICROBIAL COMPOSITIONS CONTAINING MIXTURES OF FATTY AND HYDROXYL CARBOXYLIC ACIDS” (priority 2012, published 2014).
Entries after “also recorded” stand apart in the source; their conditions may differ.

Assay: Cold solubility / 4 C storage of commercial fatty acids and their mixtures
Assay type: physicochemical
Settings: 1 day, no solvent or surfactant

CCCCCCCCCCCC(=O)O [C12, dodecanoic]
4 C. Storage, physical state: solid or formed crystals; also recorded: Solid
